In ChEMBL document CHEMBL4483862, “Open-source discovery of chemical leads for next-generation chemoprotective antimalarials” (2018) one finds IC50 and IC90 data, which are given here for 29 compounds.

The subject of the test is Plasmodium berghei. The experiment in a line: Luciferase/luciferin-expressing antifolate-resistant parasites were used to infect a culture of HepG2 cells that were pre-incubated with compounds. Infected hepatocytes emit light due to the luciferase reaction. Assay results are presented as the percent inhibition of light emission compared to control. […]. In kind it is functional. Conditions: sporozoite; for IC90: read-out: LUCIFERASE INFECTION ASSAY - IC90.

For `Cn1cc(-c2cn3c(-c4ccc(O)cc4)cnc3cn2)cn1`, the IC90 (in general, the concentration needed for an effect of 90%) was over 11.3 µM. The IC50 (commonly the concentration at which inhibition is half-maximal) (HEPG2TOX_HILL_SLOPE 9.44, HEPG2TOX_R_SQUARED 0.67, PBLUC_HILL_SLOPE 2.21, PBLUC_R_SQUARED 0.503, read-out: LUCIFERASE INFECTION ASSAY - IC50) is 6.85 µM.
Turning to `O=C(NC1CC1)c1ccc(-c2cn3c(-c4ccc(O)cc4)cnc3cn2)cc1`, the IC90 was over 8.91 µM. Also, under “HEPG2TOX_HILL_SLOPE 9.19, HEPG2TOX_R_SQUARED 0.833, PBLUC_HILL_SLOPE 2.2, PBLUC_R_SQUARED 0.157, read-out: LUCIFERASE INFECTION ASSAY - IC50”, the IC50 was found to be 7.74 µM.
Take `Cc1cccc(C(=O)Nc2nc3ccc(C)cn3c2C(=O)NCC(C)C)c1`: the IC90 was 3.75 µM. In addition, the IC50 (HEPG2TOX_HILL_SLOPE 9.43, HEPG2TOX_R_SQUARED 0.373, PBLUC_HILL_SLOPE 11.3, PBLUC_R_SQUARED 0.193, read-out: LUCIFERASE INFECTION ASSAY - IC50) stood at 3.09 µM.
As for `Fc1ccc(-c2ccnc3n[nH]c(C4CC4)c23)cc1Cl`, the IC90 was over 10 µM. Under “HEPG2TOX_HILL_SLOPE 9.31, HEPG2TOX_R_SQUARED 0.217, read-out: LUCIFERASE INFECTION ASSAY - IC50”, the IC50 was over 10 µM.
Regarding `O=C(Cc1csc(-c2ccccc2Cl)n1)NCCCCOc1ccc(F)cc1`, the IC90 was over 10 µM. Also, the IC50 (HEPG2TOX_HILL_SLOPE 9.37, HEPG2TOX_R_SQUARED 0.776, PBLUC_HILL_SLOPE 2.48, PBLUC_R_SQUARED 0.584, read-out: LUCIFERASE INFECTION ASSAY - IC50) was 5.48 µM.
As to `Oc1c(Br)cc(/C=C/c2nc3cc(Cl)ccc3o2)cc1Br`, the IC90 was over 10 µM. For the same compound, where the note is “HEPG2TOX_HILL_SLOPE 9.25, HEPG2TOX_R_SQUARED 0.294, read-out: LUCIFERASE INFECTION ASSAY - IC50”, the IC50 was over 10 µM.
`Brc1ccc(-c2noc(CCc3nc4ccccc4[nH]3)n2)cc1`: the IC90 was 7.07 µM. Besides, where the note is “HEPG2TOX_HILL_SLOPE 9.24, HEPG2TOX_R_SQUARED 0.722, PBLUC_HILL_SLOPE 3.58, PBLUC_R_SQUARED 0.661, read-out: LUCIFERASE INFECTION ASSAY - IC50”, the IC50 was found to be 3.83 µM.
Consider `Cc1nnc(Sc2nc(CN3CCCCC3)nc3sc4c(c23)CCC4)s1`, for which the IC90 was over 10 µM. Further, the IC50 (HEPG2TOX_HILL_SLOPE 9.43, HEPG2TOX_R_SQUARED 0.839, read-out: LUCIFERASE INFECTION ASSAY - IC50) was over 10 µM.
`CN(C)CCCOc1ccc(-c2nnc3ccc(-c4cccc(Cl)c4)cn23)cc1`: the IC90 was over 10 µM. For the same compound, the IC50 (HEPG2TOX_HILL_SLOPE 9.26, HEPG2TOX_R_SQUARED 0.159, PBLUC_HILL_SLOPE 2.15, PBLUC_R_SQUARED 0.0523, read-out: LUCIFERASE INFECTION ASSAY - IC50) was found to be 7.9 µM.
For the compound `O=S(=O)(Nc1ccc(Cl)cc1)c1ccc2nc(-c3ccccn3)[nH]c2c1`, the IC90 stood at 8.29 µM. In addition, the IC50 (HEPG2TOX_HILL_SLOPE 9.44, HEPG2TOX_R_SQUARED 0.935, PBLUC_HILL_SLOPE 6.04, PBLUC_R_SQUARED 0.808, read-out: LUCIFERASE INFECTION ASSAY - IC50) stood at 5.77 µM.
Consider `CC(C)(C)c1csc(-c2ccc(-n3cncn3)nc2)n1`, for which the IC90 was over 11.6 µM. Also, under “HEPG2TOX_HILL_SLOPE 9.36, HEPG2TOX_R_SQUARED 0.478, read-out: LUCIFERASE INFECTION ASSAY - IC50”, the IC50 was over 11.6 µM.
Consider `COc1ccc(NC(C)=O)cc1Nc1nc(C(F)(F)F)nc2ccccc12`, for which the IC90 is over 10 µM. Also, the IC50 (HEPG2TOX_HILL_SLOPE 9.23, HEPG2TOX_R_SQUARED 0.863, PBLUC_HILL_SLOPE 3.13, PBLUC_R_SQUARED 0.379, read-out: LUCIFERASE INFECTION ASSAY - IC50) was 6.22 µM.
`Cc1nc(N2CCc3ccccc32)c2c3c(sc2n1)CCC3`: the IC90 came to 4.64 µM. Moreover, where the note is “HEPG2TOX_HILL_SLOPE 9.23, HEPG2TOX_R_SQUARED 0.902, PBLUC_HILL_SLOPE 9.42, PBLUC_R_SQUARED 0.51, read-out: LUCIFERASE INFECTION ASSAY - IC50”, the IC50 was found to be 3.68 µM.
For `CNS(=O)(=O)c1cc(C(=O)OCc2ccc(-c3ccccc3C#N)cc2)n(C)c1`, the IC90 is over 10 µM. Also, for the setting “HEPG2TOX_HILL_SLOPE 9.24, HEPG2TOX_R_SQUARED 0.528, PBLUC_HILL_SLOPE 2.62, PBLUC_R_SQUARED 0.748, read-out: LUCIFERASE INFECTION ASSAY - IC50”, the IC50 stood at 5.4 µM.
With `Cc1cc(/C=C(\C#N)c2nc3ccccc3[nH]2)c(C)n1-c1cc(C(F)(F)F)ccc1Cl`, the IC90 came to 5.02 µM. Besides, the IC50 (HEPG2TOX_HILL_SLOPE 9.28, HEPG2TOX_R_SQUARED 0.884, PBLUC_HILL_SLOPE 1.82, PBLUC_R_SQUARED 0.761, read-out: LUCIFERASE INFECTION ASSAY - IC50) is 1.5 µM.
For `CC(C)Cn1c(N)c(C(=O)COC(=O)c2c3c(nc4ccccc24)CCCCC3)c(=O)n(C)c1=O`, the IC90 came to 1.27 µM. For the same compound, the IC50 (HEPG2TOX_HILL_SLOPE 9.18, HEPG2TOX_R_SQUARED 0.068, PBLUC_HILL_SLOPE 16.7, PBLUC_R_SQUARED 0.609, read-out: LUCIFERASE INFECTION ASSAY - IC50) is 1.11 µM.
Regarding `Cc1cc(N(C)C(C)c2ccc(-n3cnc4ccccc43)cc2)n2ncnc2n1` (stereo not drawn), the IC90 was over 10 µM. Moreover, the IC50 (HEPG2TOX_HILL_SLOPE 9.21, HEPG2TOX_R_SQUARED 0.124, PBLUC_HILL_SLOPE 9.5, PBLUC_R_SQUARED 0.615, read-out: LUCIFERASE INFECTION ASSAY - IC50) worked out at 8.2 µM.
With `CCCOc1c(Cl)cc(C(=O)N2CCN(c3cccc(C)c3C)CC2)cc1OC`, the IC90 is over 10 µM. The IC50 (HEPG2TOX_HILL_SLOPE 9.26, HEPG2TOX_R_SQUARED 0.489, PBLUC_HILL_SLOPE 10.9, 0.598, PBLUC_R_SQUARED 0.349, 0.728, read-out: LUCIFERASE INFECTION ASSAY - IC50) came out at 3.13 µM.
On to `CC(C)(C)c1ccc(C(=O)Nc2ccc(N3CCCS3(=O)=O)cc2)cc1[N+](=O)[O-]`, for which the IC90 was determined as 5.03 µM. Further, the IC50 (HEPG2TOX_HILL_SLOPE 9.4, HEPG2TOX_R_SQUARED 0.847, PBLUC_HILL_SLOPE 1.92, PBLUC_R_SQUARED 0.511, read-out: LUCIFERASE INFECTION ASSAY - IC50) is 1.6 µM.
On to `Cc1ccc(-n2nc(C)c(NC(=O)COc3ccc4c(=O)c(-c5ccccc5)coc4c3)c2C)cc1`, for which the IC90 amounted to 3.64 µM. For the same compound, the IC50 (HEPG2TOX_HILL_SLOPE 9.24, HEPG2TOX_R_SQUARED 0.0911, PBLUC_HILL_SLOPE 28.6, PBLUC_R_SQUARED 0.544, read-out: LUCIFERASE INFECTION ASSAY - IC50) amounted to 3.37 µM.
`Cc1ccccc1CNC(=O)c1ccc(NC(=O)c2ccco2)s1`: the IC90 is over 10 µM. Further, the IC50 (HEPG2TOX_HILL_SLOPE 9.39, HEPG2TOX_R_SQUARED 0.787, PBLUC_HILL_SLOPE 2.67, PBLUC_R_SQUARED 0.485, read-out: LUCIFERASE INFECTION ASSAY - IC50) was 5.78 µM.
Take `CCN(CC)S(=O)(=O)c1cc(C(=O)Nc2nc3ccccc3[nH]2)n(C)c1`: the IC90 worked out at 9.54 µM. In addition, for the setting “HEPG2TOX_HILL_SLOPE 9.29, HEPG2TOX_R_SQUARED 0.829, PBLUC_HILL_SLOPE 13.1, PBLUC_R_SQUARED 0.63, read-out: LUCIFERASE INFECTION ASSAY - IC50”, the 50% inhibitory concentration (IC50) was determined as 8.06 µM.
With `CCn1nc(C)cc1-c1nnc(Cc2ncc([N+](=O)[O-])s2)n1CCCOC`, the IC90 was found to be 5.21 µM. For the same compound, for the setting “HEPG2TOX_HILL_SLOPE 9.43, HEPG2TOX_R_SQUARED 0.891, PBLUC_HILL_SLOPE 6.15, PBLUC_R_SQUARED 0.786, read-out: LUCIFERASE INFECTION ASSAY - IC50”, the IC50 came out at 3.65 µM.
As for `O=C(Nc1ccc(Cl)c(Cl)c1)OCCNC(=O)c1cccc(S(=O)(=O)N2CCCC2)c1`, the IC90 was 9.3 µM. In addition, the IC50 (HEPG2TOX_HILL_SLOPE 9.3, HEPG2TOX_R_SQUARED 0.805, PBLUC_HILL_SLOPE 3.66, PBLUC_R_SQUARED 0.453, read-out: LUCIFERASE INFECTION ASSAY - IC50) was 5.1 µM.
On to `CCN(CC)c1ccc(C(=O)NNS(=O)(=O)c2c(F)cc(F)c(Cl)c2F)cc1`, for which the IC90 is over 10 µM. The IC50 (HEPG2TOX_HILL_SLOPE 9.38, HEPG2TOX_R_SQUARED 0.741, PBLUC_HILL_SLOPE 14.6, PBLUC_R_SQUARED 0.427, read-out: LUCIFERASE INFECTION ASSAY - IC50) came out at 9.22 µM.
Consider `Cc1ccc(/C=N/Nc2nn3c(=O)c4ccccc4nc3c3ccccc23)o1`, for which the IC90 was found to be 8.5 µM. Also, under “HEPG2TOX_HILL_SLOPE 9.29, HEPG2TOX_R_SQUARED 0.957, PBLUC_HILL_SLOPE 5.5, PBLUC_R_SQUARED 0.698, read-out: LUCIFERASE INFECTION ASSAY - IC50”, the concentration for half-maximal inhibition (IC50) turned out to be 5.7 µM.
With `O=C(Nc1cccc(C(F)(F)F)c1)Nc1ccc2c(c1)no[n+]2[O-]`, the IC90 was found to be 1.2 µM. In addition, the 50% inhibitory concentration (IC50) (HEPG2TOX_HILL_SLOPE 9.23, HEPG2TOX_R_SQUARED 0.804, PBLUC_HILL_SLOPE 15.5, PBLUC_R_SQUARED 0.688, read-out: LUCIFERASE INFECTION ASSAY - IC50) amounted to 1.04 µM.
Regarding `CC(C)(C)c1csc(NC(=O)Nc2ccc(Cl)cc2)n1`, the IC90 is over 10.7 µM. Further, for the setting “HEPG2TOX_HILL_SLOPE 9.42, HEPG2TOX_R_SQUARED 0.969, PBLUC_HILL_SLOPE 14.5, PBLUC_R_SQUARED 0.489, read-out: LUCIFERASE INFECTION ASSAY - IC50”, the IC50 amounted to 9.21 µM.
For `Cc1noc(C)c1COc1ccc(C(=O)OCC(=O)NCCC2=CCCCC2)cc1`, the IC90 is 8.4 µM. Under “HEPG2TOX_HILL_SLOPE 9.34, HEPG2TOX_R_SQUARED 0.702, PBLUC_HILL_SLOPE 3.46, PBLUC_R_SQUARED 0.677, read-out: LUCIFERASE INFECTION ASSAY - IC50”, the IC50 is 4.45 µM.
